Molecules are shown by their SMILES. The source made the active and inactive calls. For most assays here, no stated cut-off is given here; in the data, actives have a measured Kd and inactives only a lower limit.

For one assay, the target named is T1, Activin receptor type-1B (Homo sapiens, UniProt P36896).
T1 sequence (P36896 whole entry): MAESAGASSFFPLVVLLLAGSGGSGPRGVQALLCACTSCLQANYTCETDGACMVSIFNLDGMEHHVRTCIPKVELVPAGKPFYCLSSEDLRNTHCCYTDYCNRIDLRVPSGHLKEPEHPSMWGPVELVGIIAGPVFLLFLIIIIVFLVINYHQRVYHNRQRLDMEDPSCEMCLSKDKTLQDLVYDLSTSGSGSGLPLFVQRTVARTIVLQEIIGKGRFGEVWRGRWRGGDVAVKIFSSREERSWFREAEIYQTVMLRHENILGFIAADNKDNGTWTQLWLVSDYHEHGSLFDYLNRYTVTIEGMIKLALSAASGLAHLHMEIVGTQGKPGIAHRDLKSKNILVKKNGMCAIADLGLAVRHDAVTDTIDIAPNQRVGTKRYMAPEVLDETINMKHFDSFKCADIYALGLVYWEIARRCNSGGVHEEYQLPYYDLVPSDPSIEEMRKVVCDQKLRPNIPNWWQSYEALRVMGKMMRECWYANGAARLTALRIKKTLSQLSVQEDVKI

Assay [1] addresses Casein kinase I isoform alpha (Homo sapiens, UniProt P48729).
Another assay addresses GTP-binding protein 4 (Homo sapiens, UniProt Q9BZE4).
Assay [2] has as its target Tyrosine-protein kinase JAK1 (Homo sapiens, UniProt P23458).
The target in assay [3] is Rho-associated protein kinase 1 (Homo sapiens, UniProt Q13464).
Rho-associated protein kinase 1, sequence (Q13464 whole entry): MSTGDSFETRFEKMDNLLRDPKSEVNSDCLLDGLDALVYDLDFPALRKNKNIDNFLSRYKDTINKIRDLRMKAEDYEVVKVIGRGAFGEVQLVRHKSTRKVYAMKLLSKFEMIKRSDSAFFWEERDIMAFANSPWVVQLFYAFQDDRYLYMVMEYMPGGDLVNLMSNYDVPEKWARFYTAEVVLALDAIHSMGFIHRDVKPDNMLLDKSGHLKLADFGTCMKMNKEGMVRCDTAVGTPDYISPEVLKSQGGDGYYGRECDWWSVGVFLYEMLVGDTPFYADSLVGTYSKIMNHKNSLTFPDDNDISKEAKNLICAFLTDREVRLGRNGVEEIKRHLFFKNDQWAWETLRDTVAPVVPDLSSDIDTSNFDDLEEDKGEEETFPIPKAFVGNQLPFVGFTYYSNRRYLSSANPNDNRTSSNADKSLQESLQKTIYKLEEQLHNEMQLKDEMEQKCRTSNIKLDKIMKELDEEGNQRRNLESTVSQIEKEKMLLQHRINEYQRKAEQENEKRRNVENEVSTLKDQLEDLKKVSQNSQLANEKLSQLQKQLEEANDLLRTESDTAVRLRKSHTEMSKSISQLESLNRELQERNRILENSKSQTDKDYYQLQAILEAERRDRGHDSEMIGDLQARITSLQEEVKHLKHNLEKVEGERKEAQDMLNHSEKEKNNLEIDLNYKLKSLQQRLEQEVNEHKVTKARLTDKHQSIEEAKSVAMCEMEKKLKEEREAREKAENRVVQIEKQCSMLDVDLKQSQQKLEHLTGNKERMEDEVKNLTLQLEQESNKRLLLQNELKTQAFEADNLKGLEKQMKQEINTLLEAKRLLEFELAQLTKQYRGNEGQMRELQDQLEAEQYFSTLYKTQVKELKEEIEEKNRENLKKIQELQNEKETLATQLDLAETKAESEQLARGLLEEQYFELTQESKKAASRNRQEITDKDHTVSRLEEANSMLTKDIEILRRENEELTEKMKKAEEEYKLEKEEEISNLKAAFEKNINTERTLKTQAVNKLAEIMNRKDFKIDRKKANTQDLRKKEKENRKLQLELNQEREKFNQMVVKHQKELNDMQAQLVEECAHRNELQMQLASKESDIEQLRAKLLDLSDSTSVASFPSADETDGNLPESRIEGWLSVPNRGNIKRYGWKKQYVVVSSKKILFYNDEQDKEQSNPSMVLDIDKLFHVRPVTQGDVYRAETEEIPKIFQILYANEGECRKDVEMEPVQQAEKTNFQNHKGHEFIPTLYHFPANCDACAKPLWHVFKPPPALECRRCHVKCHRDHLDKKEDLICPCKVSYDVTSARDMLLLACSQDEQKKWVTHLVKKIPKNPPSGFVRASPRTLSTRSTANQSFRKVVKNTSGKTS
For a further assay, the target named is T2, Septin-9 (Homo sapiens, UniProt Q9UHD8).
T2 sequence (Q9UHD8 whole entry): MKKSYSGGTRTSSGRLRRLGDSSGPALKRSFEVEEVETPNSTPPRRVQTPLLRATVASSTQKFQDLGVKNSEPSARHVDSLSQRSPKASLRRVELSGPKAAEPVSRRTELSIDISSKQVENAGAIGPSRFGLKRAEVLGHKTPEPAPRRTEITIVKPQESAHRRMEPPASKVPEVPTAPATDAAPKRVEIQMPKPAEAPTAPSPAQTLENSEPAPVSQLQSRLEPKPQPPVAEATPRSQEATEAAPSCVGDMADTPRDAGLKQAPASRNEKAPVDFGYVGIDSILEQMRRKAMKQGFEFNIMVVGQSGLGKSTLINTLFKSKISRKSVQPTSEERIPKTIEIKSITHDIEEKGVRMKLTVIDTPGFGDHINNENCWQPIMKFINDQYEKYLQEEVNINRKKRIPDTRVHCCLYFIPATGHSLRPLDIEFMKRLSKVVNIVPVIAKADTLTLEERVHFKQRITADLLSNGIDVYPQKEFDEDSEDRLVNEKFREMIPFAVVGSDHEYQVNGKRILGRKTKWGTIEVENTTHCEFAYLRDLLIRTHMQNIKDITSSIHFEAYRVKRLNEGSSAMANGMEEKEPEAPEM

The target in assay [4] is T3, Serine/threonine-protein kinase TAO2 (Homo sapiens, UniProt Q9UL54).
T3 sequence (Q9UL54 whole entry): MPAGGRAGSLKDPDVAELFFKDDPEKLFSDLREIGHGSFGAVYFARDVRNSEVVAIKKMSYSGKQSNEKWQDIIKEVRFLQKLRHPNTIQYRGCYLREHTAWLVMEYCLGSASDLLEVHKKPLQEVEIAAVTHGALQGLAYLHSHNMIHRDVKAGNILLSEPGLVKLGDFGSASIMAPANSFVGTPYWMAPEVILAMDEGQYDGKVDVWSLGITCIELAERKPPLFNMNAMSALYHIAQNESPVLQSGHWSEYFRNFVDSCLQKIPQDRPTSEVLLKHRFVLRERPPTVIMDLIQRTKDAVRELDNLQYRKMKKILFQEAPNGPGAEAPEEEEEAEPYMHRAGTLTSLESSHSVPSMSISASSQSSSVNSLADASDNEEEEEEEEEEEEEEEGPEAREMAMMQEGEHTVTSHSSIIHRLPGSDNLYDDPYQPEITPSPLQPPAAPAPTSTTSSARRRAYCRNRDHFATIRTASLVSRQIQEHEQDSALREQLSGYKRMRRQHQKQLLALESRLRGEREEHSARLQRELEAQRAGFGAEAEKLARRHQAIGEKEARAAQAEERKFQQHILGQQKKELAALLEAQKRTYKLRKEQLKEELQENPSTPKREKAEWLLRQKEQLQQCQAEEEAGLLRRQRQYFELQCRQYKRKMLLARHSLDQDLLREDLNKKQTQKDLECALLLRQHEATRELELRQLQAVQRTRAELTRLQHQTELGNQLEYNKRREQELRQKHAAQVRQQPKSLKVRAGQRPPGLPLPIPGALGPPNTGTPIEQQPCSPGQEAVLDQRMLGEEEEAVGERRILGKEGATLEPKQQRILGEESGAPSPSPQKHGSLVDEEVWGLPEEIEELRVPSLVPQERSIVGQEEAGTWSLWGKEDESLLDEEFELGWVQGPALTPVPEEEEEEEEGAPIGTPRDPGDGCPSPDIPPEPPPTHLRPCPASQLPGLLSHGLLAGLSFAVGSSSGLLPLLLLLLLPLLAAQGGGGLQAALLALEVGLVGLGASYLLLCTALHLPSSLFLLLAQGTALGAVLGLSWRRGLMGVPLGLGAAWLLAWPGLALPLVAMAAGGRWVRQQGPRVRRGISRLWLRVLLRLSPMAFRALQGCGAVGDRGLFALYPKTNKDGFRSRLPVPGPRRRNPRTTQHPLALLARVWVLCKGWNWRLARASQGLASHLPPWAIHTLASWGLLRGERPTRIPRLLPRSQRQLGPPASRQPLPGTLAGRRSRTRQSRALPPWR

Assay [5] concerns the target T4, Serine/threonine-protein kinase ULK3 (Homo sapiens, UniProt Q6PHR2).
T4 sequence (Q6PHR2 whole entry): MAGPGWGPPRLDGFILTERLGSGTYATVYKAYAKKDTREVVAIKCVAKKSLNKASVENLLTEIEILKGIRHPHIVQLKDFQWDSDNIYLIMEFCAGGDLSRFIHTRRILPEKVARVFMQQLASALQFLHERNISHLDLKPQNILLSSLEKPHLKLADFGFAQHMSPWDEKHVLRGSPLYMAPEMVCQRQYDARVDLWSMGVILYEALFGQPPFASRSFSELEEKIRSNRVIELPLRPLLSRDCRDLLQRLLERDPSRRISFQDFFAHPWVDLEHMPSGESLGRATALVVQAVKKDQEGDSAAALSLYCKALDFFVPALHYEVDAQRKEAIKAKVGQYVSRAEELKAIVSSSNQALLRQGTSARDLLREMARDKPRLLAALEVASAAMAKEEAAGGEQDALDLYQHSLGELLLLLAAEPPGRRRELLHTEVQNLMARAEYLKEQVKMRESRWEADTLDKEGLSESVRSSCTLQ

Casein kinase I isoform alpha, sequence (P48729 whole entry, canonical isoform): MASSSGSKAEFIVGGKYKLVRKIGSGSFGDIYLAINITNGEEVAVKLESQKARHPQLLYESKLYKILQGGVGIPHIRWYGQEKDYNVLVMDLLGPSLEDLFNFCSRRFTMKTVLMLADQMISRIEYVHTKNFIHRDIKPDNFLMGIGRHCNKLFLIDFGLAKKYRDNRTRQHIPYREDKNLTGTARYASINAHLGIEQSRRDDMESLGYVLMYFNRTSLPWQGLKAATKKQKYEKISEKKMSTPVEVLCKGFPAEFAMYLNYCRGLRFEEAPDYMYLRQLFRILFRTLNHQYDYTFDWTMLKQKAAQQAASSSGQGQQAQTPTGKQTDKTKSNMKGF
Tyrosine-protein kinase JAK1, sequence (P23458 whole entry): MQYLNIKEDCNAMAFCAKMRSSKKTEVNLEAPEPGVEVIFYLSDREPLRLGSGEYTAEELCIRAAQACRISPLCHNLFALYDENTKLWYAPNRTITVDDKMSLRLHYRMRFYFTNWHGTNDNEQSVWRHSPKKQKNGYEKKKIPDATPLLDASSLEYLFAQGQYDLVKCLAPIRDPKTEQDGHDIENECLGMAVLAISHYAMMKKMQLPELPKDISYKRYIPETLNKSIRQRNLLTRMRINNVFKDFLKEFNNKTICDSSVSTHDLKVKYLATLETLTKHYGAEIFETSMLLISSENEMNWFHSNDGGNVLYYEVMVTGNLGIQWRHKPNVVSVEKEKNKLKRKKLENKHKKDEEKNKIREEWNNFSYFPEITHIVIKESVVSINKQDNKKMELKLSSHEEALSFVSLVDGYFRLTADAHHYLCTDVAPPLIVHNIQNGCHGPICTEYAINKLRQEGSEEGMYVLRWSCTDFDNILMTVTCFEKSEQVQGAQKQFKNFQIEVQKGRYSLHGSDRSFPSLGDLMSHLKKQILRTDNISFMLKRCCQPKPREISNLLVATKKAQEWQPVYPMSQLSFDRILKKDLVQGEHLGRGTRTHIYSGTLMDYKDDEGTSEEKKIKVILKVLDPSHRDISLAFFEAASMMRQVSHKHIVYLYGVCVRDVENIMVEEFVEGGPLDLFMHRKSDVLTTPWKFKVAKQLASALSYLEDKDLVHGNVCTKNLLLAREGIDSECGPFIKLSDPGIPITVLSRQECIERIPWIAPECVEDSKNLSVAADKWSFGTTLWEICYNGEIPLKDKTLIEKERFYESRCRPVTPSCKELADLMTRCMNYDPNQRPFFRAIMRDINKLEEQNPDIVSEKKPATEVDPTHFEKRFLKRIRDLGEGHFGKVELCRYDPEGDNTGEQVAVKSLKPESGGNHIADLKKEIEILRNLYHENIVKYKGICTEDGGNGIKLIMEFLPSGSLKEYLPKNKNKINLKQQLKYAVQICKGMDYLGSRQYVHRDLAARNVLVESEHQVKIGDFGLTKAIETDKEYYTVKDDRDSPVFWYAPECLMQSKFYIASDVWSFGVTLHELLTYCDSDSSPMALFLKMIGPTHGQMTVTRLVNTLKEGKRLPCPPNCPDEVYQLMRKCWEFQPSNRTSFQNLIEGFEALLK

Usually Kd stands for the constant that tells how readily two partners part at equilibrium. Take `CC[C@@H]1C(=O)N(C)c2cnc(Nc3ccc(C(=O)N[C@H]4CC[C@H](N5CCN(CC6CC6)CC5)CC4)cc3OC)nc2N1C(C)C` [VOLASERTIB]: the Kd (at Activin receptor type-1B; in assay [1]; at GTP-binding protein 4; in assay [2]; in assay [3]; on Septin-9) was > 30 µM (inactive) each time. Besides, the Kd in assay [4] and in assay [5] was > 30 µM (inactive) throughout.
Consider `Cc1ccc(S(=O)(=O)Nc2nc3ccccc3nc2Nc2ccc3nsnc3c2)cc1`, for which the Kd (on Activin receptor type-1B; in assay [1]; at GTP-binding protein 4; in assay [2]; in assay [3]; on Septin-9) was > 30 µM (inactive) throughout. The Kd in assay [4] and in assay [5] was > 30 µM (inactive) each time.
For `Cn1cc(-c2ccc(F)c(C(F)(F)F)c2)nc1C1CCN(c2ncnc3[nH]ncc23)CC1` [LY-2584702], the Kd (at Activin receptor type-1B; in assay [1]; on GTP-binding protein 4; in assay [2]; in assay [3]; on Septin-9) was > 30 µM (inactive) in each case. In addition, the Kd in assay [4] and in assay [5] was > 30 µM (inactive) each time.
As for `COc1cc(OC)c(/C=C/S(=O)(=O)Cc2ccc(OC)c(NCC(=O)O)c2)c(OC)c1` [RIGOSERTIB], the Kd (on Activin receptor type-1B; in assay [1]; at GTP-binding protein 4; in assay [2]; in assay [3]; at Septin-9) was > 30 µM (inactive) in each case. Besides, the Kd in assay [4] and in assay [5] was > 30 µM (inactive) each time.
For `CCn1c(=O)c(-c2cc[nH]n2)cc2c(C)nc(N)nc21` [VOXTALISIB], the Kd (on Activin receptor type-1B; in assay [1]; in assay [2]; in assay [3]; on Septin-9; in assay [4]) was > 30 µM (inactive) each time. In addition, in assay [5], the Kd is > 30 µM (inactive).
Turning to `CO[C@H]1C[C@@H]2CC[C@@H](C)[C@@](O)(O2)C(=O)C(=O)N2CCCC[C@H]2C(=O)O[C@H]([C@H](C)C[C@@H]2CC[C@@H](OCCO)[C@H](OC)C2)CC(=O)[C@H](C)/C=C(\C)[C@@H](O)[C@@H](OC)C(=O)[C@H](C)C[C@H](C)/C=C/C=C/C=C/1C` [EVEROLIMUS], the Kd (on Activin receptor type-1B; in assay [1]; on GTP-binding protein 4; in assay [2]; in assay [3]; on Septin-9) was > 30 µM (inactive) throughout. The Kd in assay [4] and in assay [5] was > 30 µM (inactive) each time.
For `CCCS(=O)(=O)Nc1ccc(F)c(C(=O)c2c[nH]c3ncc(-c4ccc(Cl)cc4)cc23)c1F` [VEMURAFENIB], the Kd (on Activin receptor type-1B; in assay [1]; on GTP-binding protein 4; in assay [2]; in assay [3]; on Septin-9) was > 30 µM (inactive) throughout. Also, the Kd in assay [4] and in assay [5] was > 30 µM (inactive) each time.
Take `CCS(=O)(=O)N1CC(CC#N)(n2cc(-c3ncnc4[nH]ccc34)cn2)C1` [BARICITINIB]: the Kd at Activin receptor type-1B was > 30 µM (inactive); in assay [1], > 30 µM (inactive); on GTP-binding protein 4, > 30 µM (inactive); in assay [3] it was 0.482 µM (active); on Septin-9, 0.084 µM; in assay [4] it was > 30 µM (inactive). Further, the Kd in assay [5] was > 30 µM (inactive).
Turning to `C[C@@H](Nc1cc(F)cc(F)c1)c1cc(C(=O)N(C)C)cc2c(=O)cc(N3CCOCC3)oc12` [AZD-8186], the Kd (on Activin receptor type-1B; in assay [1]; in assay [2]; in assay [3]; on Septin-9; in assay [4]) was > 30 µM (inactive) in each case. In addition, the Kd in assay [5] is > 30 µM (inactive).
For `CN1CCC(COc2cnc(-c3cccc(Cn4nc(-c5cccc(C#N)c5)ccc4=O)c3)nc2)CC1` [TEPOTINIB], the Kd (on Activin receptor type-1B; in assay [1]; on GTP-binding protein 4; in assay [3]; on Septin-9; in assay [4]) was > 30 µM (inactive) in each case. The Kd in assay [5] was > 30 µM (inactive).
As for `C[C@@H](c1ccc2nccn2c1)n1nnc2ncc(-c3cnn(C)c3)nc21` [SAVOLITINIB], the Kd (in assay [1]; at GTP-binding protein 4; in assay [2]; in assay [3]; at Septin-9; in assay [4]) was > 30 µM (inactive) each time. In addition, in assay [5], the Kd is > 30 µM (inactive).
As for `Cc1ccc(NC(=O)c2ccc(CN3CC[C@H](N(C)C)C3)c(C(F)(F)F)c2)cc1Nc1nccc(-c2cncnc2)n1` [BAFETINIB], the Kd (at Activin receptor type-1B; at GTP-binding protein 4; in assay [2]; in assay [3]; on Septin-9; in assay [4]) was > 30 µM (inactive) throughout. The Kd in assay [5] is > 30 µM (inactive).

Values taken from ChEMBL document CHEMBL3991601, “The target landscape of clinical kinase drugs” (Science, 2017).
